≈ marks a conversion by molar mass, not a printed value. Some results are limits rather than exact numbers.

Data set [1] has as its system Plasmodium berghei. Kind of data set: Potency index, ratio of cycloguanil ED50 to test compound ED50 for antimalarial activity against Plasmodium berghei infected in mouse. It counts as functional.
The nature of data set [2]: Inhibition of Plasmodium knowlesi DHFR.
The test system of data set [3] is Plasmodium berghei. Kind of data set: Potency index, ratio of chloroquine ED50 to test compound ED50 for antimalarial activity against Plasmodium berghei infected in mouse. It counts as functional.
Data set [4] has as its system Plasmodium falciparum. Put plainly: Antimalarial activity against Plasmodium falciparum GA3. The class given is functional, organism-based.
The test system of data set [5] is Plasmodium falciparum. Put plainly: Antimalarial activity against Plasmodium falciparum CH12. The class given is functional, organism-based.
In the next data set the test system is Cavia porcellus. Kind of data set: Hypoglycemic activity in sc dosed guinea pig assessed as glucose lowering effect. The class given is functional.
Data set [6] can be described thus: Oral bioavailability in rat. The class given is ADME, organism-based. The note with it: in vivo.
The nature of data set [7]: Toxicity in po dosed mouse. The class given is organism-based. Particulars: in vivo.
The nature of data set [8]: Toxicity in sc dosed mouse. The class given is organism-based. The note with it: in vivo.
Data set [9] is described as follows: Half life in po dosed human. It counts as ADME, organism-based. Particulars: in vivo.
The species named for the next data set is Homo sapiens. Kind of data set: Antidiabetic activity in human assessed as reduction in hepatic glucose output. It counts as functional. Also on record: scale not given: the % may be the effect or the level left.
Data set [10] deals with MCF7. Kind of data set: Cytotoxicity against human MCF7 cells assessed as reduction in breast cancer stem cells at 5 mM after 48 hrs (reference value: 2.78%). It counts as functional. Also on record: scale not given: the % may be the effect or the level left.
The subject of a further data set is SW-620. Kind of data set: Synergistic antiproliferative activity against human SW620 cells assessed as reduction in cancer stem cells preincubated for 24 hrs followed by 5-FU addition and measured after 48 hrs (reference value: 21.30 +/- 1.40 %). It counts as functional. Details: scale not given: the % may be the effect or the level left.
Data set [11] in a line: Toxicity in rat. The note with it: in vivo.
Data set [12] deals with MCF7. Put plainly: Cytotoxicity against human MCF7 cells assessed as reduction in breast cancer stem cells at 1 mM after 48 hrs (reference value: 2.78%). The class given is functional. Also on record: scale not given: the % may be the effect or the level left.
The subject of another data set is Streptococcus. Put plainly: Antibacterial activity against Streptococcus beta-haemolyticus. It counts as functional.
Another data set has as its system Clostridium septicum. Kind of data set: Antibacterial activity against Clostridium septicum. The class given is functional.
The next data set deals with Streptococcus pyogenes. Kind of data set: Antibacterial activity against Streptococcus pyogenes. It counts as functional.

The term EC50 denotes the concentration that produces a half-maximal response. Turning to `CC1(C)N=C(N)N=C(N)N1OCc1ccc(Cl)c(Cl)c1` [CLOCIGUANIL], the figures for the “Ratio ED50” value with Plasmodium berghei [1] and in the data set with Plasmodium berghei [3] were 30 and 10, respectively. This compound also showed an EC50 in data set [2] of 1 pM.
For orientation: IC50 means the point on the concentration scale where inhibition reaches its midpoint. For `CC(C)/N=C(N)/N=C(\N)NOCCCOc1cc(Cl)c(Cl)cc1Cl`, the IC50 was found to be 0.532 µg/mL (≈ 1.34 µM) with Plasmodium falciparum [4] and 326 ng/mL (≈ 0.822 µM) in the data set with Plasmodium falciparum [5].
Turning to `N=C(N)NC(=N)NCCc1ccccc1` [PHENFORMIN], in the data set on Cavia porcellus, the MED turned out to be 7.5 mg.
On the same count and under the same terms, the value for `CCCCNC(=N)NC(=N)N` [BUFORMIN] was 20 mg.
For orientation: bioavailability means dose-corrected exposure relative to a reference, in per cent. For the compound `CC1(C)N=C(N)N=C(N)N1OCCCOc1cc(Cl)c(Cl)cc1Cl`, in the data set on Plasmodium falciparum [5], the IC50 came out at 0.05 ng/mL (≈ 0.000127 µM). The same compound showed a bioavailability in [6] of at most 1%.
Broadly, the LD50 is the dose at which mortality reaches 50%. For `N=C(N)/N=C(\N)N1CCOCC1` [MOROXYDINE], the 50% lethal dose (LD50) in data set [7] was above 6250 mg/kg; in data set [8] it was 225 mg/kg.
The term half-life denotes the time needed for the level to fall by half in the phase considered. In the case of `CC(C)NC(=N)NC(=N)Nc1ccc(Cl)c(Cl)c1` [CHLORPROGUANIL], the half-life in data set [9] is 35 h.
Take `CN(C)C(=N)NC(=N)N` [METFORMIN]: the LD50 was 1450 mg/kg in [7], 2200 mg/kg in [8] and 1000 mg/kg in data set [11]. For the same compound, the Activity result is given as “>=75%” in the data set listed under Homo sapiens, 1.29% in the data set with MCF7 [10], 15.13% with SW-620 and 2.2% with MCF7 [12]. Further, the MED with Cavia porcellus was determined as 75 mg.
As a reminder, the MIC is the smallest concentration in the dilution series that meets the test's criterion for growth inhibition. In the case of `N=C(NC(=N)N1CCN(C(=N)NC(=N)Nc2ccc(Cl)cc2)CC1)Nc1ccc(Cl)cc1` [PICLOXYDINE], the values for the MIC in the data set on Streptococcus, in the data set on Clostridium septicum and against Streptococcus pyogenes were 760 µg/mL (≈ 1600 µM), 300 µg/mL (≈ 631 µM) and 760 µg/mL (≈ 1600 µM), respectively.

Values taken from ChEMBL document CHEMBL5241091, “Biguanides drugs: Past success stories and promising future for drug discovery” (Eur J Med Chem, 2021).
